In PubChem BioAssay AID1963861 (Molecular Pharmacology Branch, DTP, NCI, 2024):

System: 885724-159-R-J1-PDC KRAS PDC multicell spheroid viability
Assay: Anticancer human tumor 885724-159-R-J1-PDC patient-derived pancreatic adenocarcinoma cell line growth inhibition [KRAS2]
Conditions: for IC50: curve of first compound; for viability, T/C: stronger effect = lower value; active = viability on the fitted dose curve at most 10% of control; inactive = the rest
Summary of the method: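 Combination screen of spheroid viability in tumor-cell co-cultures with endothelial (HUVEC) and mesenchymal stem cell stroma. Each agent was tested in half-log dilutions, topping at clinical Cmax or at 10 microM without a known Cmax.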

[1] = second compound 0.0316 µM, first compound 0.000316 µM
[2] = second compound 0.0316 µM, first compound 0.001 µM
[3] = second compound 0.0316 µM, first compound 0.00316 µM
[4] = second compound 0.0316 µM, first compound 0.01 µM
[5] = second compound 0.0316 µM, first compound 0.0316 µM
[6] = second compound 0.1 µM, first compound 0.000316 µM
[7] = second compound 0.1 µM, first compound 0.001 µM
[8] = second compound 0.1 µM, first compound 0.00316 µM
[9] = second compound 0.1 µM, first compound 0.01 µM
[10] = second compound 0.1 µM, first compound 0.0316 µM
[11] = second compound 0.316 µM, first compound 0.000316 µM
[12] = second compound 0.316 µM, first compound 0.001 µM
[13] = second compound 0.316 µM, first compound 0.00316 µM
[14] = second compound 0.316 µM, first compound 0.01 µM
[15] = second compound 0.316 µM, first compound 0.0316 µM
[16] = second compound 1 µM, first compound 0.000316 µM
[17] = second compound 1 µM, first compound 0.001 µM
[18] = second compound 1 µM, first compound 0.00316 µM
[19] = second compound 1 µM, first compound 0.01 µM
[20] = second compound 1 µM, first compound 0.0316 µM
[21] = second compound 3.16 µM, first compound 0.000316 µM
[22] = second compound 3.16 µM, first compound 0.001 µM
[23] = second compound 3.16 µM, first compound 0.00316 µM
[24] = second compound 3.16 µM, first compound 0.01 µM
[25] = second compound 3.16 µM, first compound 0.0316 µM
[26] = second compound 0.0316 µM, first compound 0.1 µM
[27] = second compound 0.1 µM, first compound 0.1 µM
[28] = second compound 0.316 µM, first compound 0.1 µM
[29] = second compound 1 µM, first compound 0.1 µM
[30] = second compound 3.16 µM, first compound 0.1 µM
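Also: spheroids exposed to agents for 7 days before readout.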

CC(=O)Nc1cccc(-n2c(=O)n(C3CC3)c(=O)c3c(Nc4ccc(I)cc4F)n(C)c(=O)c(C)c32)c1 + C=CC(=O)N1CCN(c2nc(OCC3CCCN3C)nc3c2CCN(c2cccc4cccc(C)c24)C3)CC1CC#N
0.00148 µM: IC50 (second compound 0.1 µM)
0.000933 µM: IC50 (second compound 0.316 µM)
< 0.0001 µM: IC50 (second compound 3.16 µM)
inactive: viability, T/C (second compound 0.0316 µM, first compound 0.0001 µM) 107% | viability, T/C [1] 78.7% | viability, T/C [2] 51.3% | viability, T/C [3] 38.5% | viability, T/C [4] 31% | viability, T/C [5] 20.8% | viability, T/C (second compound 0.1 µM, first compound 0.0001 µM) 92.3% | viability, T/C [6] 84% | viability, T/C [7] 54.2% | viability, T/C [8] 37.3% | viability, T/C [9] 28.9% | viability, T/C [10] 20.4% | viability, T/C (second compound 0.316 µM, first compound 0.0001 µM) 92.6% | viability, T/C [11] 74.8% | viability, T/C [12] 45.1% | viability, T/C [13] 34.8% | viability, T/C [14] 28.7% | viability, T/C [15] 20.4% | viability, T/C (second compound 1 µM, first compound 0.0001 µM) 85.1% | viability, T/C [16] 64.3% | viability, T/C [17] 39.5% | viability, T/C [18] 27.7% | viability, T/C [19] 21.8% | viability, T/C [20] 18.6% | viability, T/C (second compound 3.16 µM, first compound 0.0001 µM) 45.4% | viability, T/C [21] 37.8% | viability, T/C [22] 18.8% | viability, T/C [23] 18.8%
0.000625 µM: IC50 (second compound 1 µM)
0.00133 µM: IC50 (second compound 0.0316 µM)
active: viability, T/C [24] 5.46% | viability, T/C [25] 8.49%

CC(C)n1nc(-c2ccc3oc(N)nc3c2)c2c(N)ncnc21 + C=CC(=O)N1CCN(c2nc(OCC3CCCN3C)nc3c2CCN(c2cccc4cccc(C)c24)C3)CC1CC#N
0.0191 µM: IC50 (second compound 0.316 µM)
0.00086 µM: IC50 (second compound 3.16 µM)
0.00871 µM: IC50 (second compound 1 µM)
0.0242 µM: IC50 (second compound 0.1 µM)
0.0415 µM: IC50 (second compound 0.0316 µM)
inactive: viability, T/C [1] 88.8% | viability, T/C [2] 77.3% | viability, T/C [3] 67.8% | viability, T/C [4] 60.6% | viability, T/C [5] 49.9% | viability, T/C [26] 45.9% | viability, T/C [6] 88.1% | viability, T/C [7] 80.4% | viability, T/C [8] 69.4% | viability, T/C [9] 61.7% | viability, T/C [10] 44.2% | viability, T/C [27] 41.2% | viability, T/C [11] 82.1% | viability, T/C [12] 73.8% | viability, T/C [13] 61.4% | viability, T/C [14] 55.6% | viability, T/C [15] 45.1% | viability, T/C [28] 41.8% | viability, T/C [16] 81.9% | viability, T/C [17] 85.5% | viability, T/C [18] 63.8% | viability, T/C [19] 50.2% | viability, T/C [20] 44.1% | viability, T/C [29] 41.1% | viability, T/C [21] 68.3% | viability, T/C [22] 43.1% | viability, T/C [23] 42.9% | viability, T/C [24] 15.3% | viability, T/C [25] 24% | viability, T/C [30] 15.7%

CC1(C)CCC(CN2CCN(c3ccc(C(=O)NS(=O)(=O)c4ccc(NCC5CCOCC5)c([N+](=O)[O-])c4)c(Oc4cnc5[nH]ccc5c4)c3)CC2)=C(c2ccc(Cl)cc2)C1 + C=CC(=O)N1CCN(c2nc(OCC3CCCN3C)nc3c2CCN(c2cccc4cccc(C)c24)C3)CC1CC#N
inactive: viability, T/C [5] 99.3% | viability, T/C [26] 100% | viability, T/C (second compound 0.0316 µM, first compound 0.316 µM) 108% | viability, T/C (second compound 0.0316 µM, first compound 1 µM) 101% | viability, T/C (second compound 0.0316 µM, first compound 3.16 µM) 64.8% | viability, T/C [10] 115% | viability, T/C [27] 100% | viability, T/C (second compound 0.1 µM, first compound 0.316 µM) 93.1% | viability, T/C (second compound 0.1 µM, first compound 1 µM) 107% | viability, T/C (second compound 0.1 µM, first compound 3.16 µM) 80.5% | viability, T/C [15] 100% | viability, T/C [28] 99.8% | viability, T/C (second compound 0.316 µM, first compound 0.316 µM) 94.8% | viability, T/C (second compound 0.316 µM, first compound 1 µM) 100% | viability, T/C (second compound 0.316 µM, first compound 3.16 µM) 51.3% | viability, T/C [20] 86.1% | viability, T/C [29] 97.8% | viability, T/C (second compound 1 µM, first compound 0.316 µM) 87.3% | viability, T/C (second compound 1 µM, first compound 1 µM) 84.5% | viability, T/C (second compound 1 µM, first compound 3.16 µM) 59% | viability, T/C [25] 55.2% | viability, T/C [30] 55% | viability, T/C (second compound 3.16 µM, first compound 0.316 µM) 43.9% | viability, T/C (second compound 3.16 µM, first compound 1 µM) 35.8%
0.339 µM: IC50 (second compound 3.16 µM)
4.25 µM: IC50 (second compound 0.0316 µM)
3.28 µM: IC50 (second compound 0.316 µM)
active: viability, T/C (second compound 0.0316 µM, first compound 10 µM) 7.81% | viability, T/C (second compound 0.1 µM, first compound 10 µM) 9.45% | viability, T/C (second compound 0.316 µM, first compound 10 µM) 9.84% | viability, T/C (second compound 1 µM, first compound 10 µM) 6.08% | viability, T/C (second compound 3.16 µM, first compound 3.16 µM) 0.97% | viability, T/C (second compound 3.16 µM, first compound 10 µM) 0.63%
5.18 µM: IC50 (second compound 0.1 µM)
3.85 µM: IC50 (second compound 1 µM)
